From PubChem BioAssay (NCI)
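96-well plates; 48 h exposure; 5 concentrations. Endpoints by linear interpolation between flanking doses. Not reached: highest tested concentration assigned. GI50 marks 50% less growth. TGI is the concentration that stops growth completely.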

Assays:
Assay in all cases: inhibition of tumour cell growth, NCI panel, 48 h
[1] = tested on: ACHN renal
[2] = tested on: UACC-62 melanoma
[3] = tested on: RXF 393 renal
[4] = tested on: SF-539 CNS
[5] = tested on: HCC-2998 colon
[6] = tested on: HT29 colon
[7] = tested on: SNB-75 CNS
[8] = tested on: SK-MEL-28 melanoma
[9] = tested on: NCI-H460 lung
[10] = tested on: SK-MEL-5 melanoma
[11] = tested on: SN12C renal
[12] = tested on: HOP-62 NSCLC
[13] = tested on: MDA-MB-231 breast
[14] = tested on: DU-145 prostate
[15] = tested on: OVCAR-4 ovarian
[16] = tested on: EKVX NSCLC
[17] = tested on: HCT-15 colon
[18] = tested on: MALME-3M melanoma
[19] = tested on: SK-OV-3 ovarian
[20] = tested on: M14 melanoma
[21] = tested on: UO-31 renal
[22] = tested on: OVCAR-5 ovarian
[23] = tested on: NCI-H226 lung
[24] = tested on: RPMI-8226 leukemia
[25] = tested on: NCI/ADR-RES ovarian
[26] = tested on: 786-0 renal
[27] = tested on: MDA-MB-435
[28] = tested on: COLO 205 colon
[29] = tested on: SNB-19 CNS
[30] = tested on: CCRF-CEM leukemia
[31] = tested on: OVCAR-8 ovarian
[32] = tested on: NCI-H23 lung
[33] = tested on: PC-3 prostate
[34] = tested on: HL-60(TB) leukemia
[35] = tested on: MOLT-4 leukemia
[36] = tested on: UACC-257 melanoma
[37] = tested on: MCF7 breast
[38] = tested on: IGROV1 ovarian
[39] = tested on: LOX IMVI melanoma
[40] = tested on: SF-295 CNS
[41] = tested on: SW-620 colon
[42] = tested on: NCI-H522 lung
[43] = tested on: A498 renal
[44] = tested on: KM12 colon
[45] = tested on: HCT-116 colon
[46] = tested on: CAKI-1 renal
[47] = tested on: K-562 leukemia
[48] = tested on: TK-10 renal
[49] = tested on: HOP-92 NSCLC
[50] = tested on: SF-268 CNS
[51] = tested on: BT-549 breast
[52] = tested on: U251 CNS
[53] = tested on: HS 578T breast
[54] = tested on: T-47D breast
[55] = tested on: SK-MEL-2 melanoma

Work on `C#Cc1nc(C(=O)NCCCCCCC(=O)NO)cs1` yielded a GI50 [1] of 897 nM, a TGI [1] of 2190 nM and a GI50 [2] of 433 nM. It also gave a TGI [2] of 2050 nM, a GI50 [3] of 392 nM and a TGI [3] of 1390 nM. It also gave a GI50 [4] of 794 nM, a TGI [4] of 2240 nM and a GI50 [5] of 1710 nM. It also gave a TGI [5] of 4430 nM, a GI50 [6] of 782 nM and a TGI [6] of 2440 nM. The GI50 [7] was 714 nM, the TGI [7] was 3340 nM and the GI50 [8] was 1210 nM. It also gave a TGI [8] of 5100 nM, a GI50 [9] of 587 nM and a TGI [9] of 7250 nM. For the same molecule, the GI50 [10] was 642 nM, the TGI [10] was 2180 nM and the GI50 [11] was 1620 nM. It also gave a TGI [11] of 5250 nM, a GI50 [12] of 1120 nM and a TGI [12] of 3070 nM. For the same molecule, the GI50 [13] was 318 nM, the TGI [13] was 1100 nM and the GI50 [14] was 367 nM. The TGI [14] was 1440 nM, the GI50 [15] was 1800 nM and the TGI [15] was 5120 nM. It also gave a GI50 [16] of 1550 nM, a TGI [16] of 3190 nM and a GI50 [17] of 1470 nM. The TGI [17] was 3840 nM, the GI50 [18] was 314 nM and the TGI [18] was 1610 nM. The GI50 [19] was 1470 nM, the TGI [19] was 4010 nM and the GI50 [20] was 1220 nM. For the same molecule, the TGI [20] was 4030 nM, the GI50 [21] was 174 nM and the TGI [21] was 332 nM. For the same molecule, the GI50 [22] was 1030 nM, the TGI [22] was 3580 nM and the GI50 [23] was 1740 nM. It also gave a TGI [23] of 6490 nM, a GI50 [24] of 312 nM and a TGI [24] of 1550 nM. The GI50 [25] was 335 nM, the TGI [25] was over 100000 nM and the GI50 [26] was 294 nM. For the same molecule, the TGI [26] was 838 nM, the GI50 [27] was 692 nM and the TGI [27] was 3450 nM. For the same molecule, the GI50 [28] was 691 nM, the TGI [28] was 2000 nM and the GI50 [29] was 2210 nM. The TGI [29] was 10000 nM, the GI50 [30] was 284 nM and the TGI [30] was 994 nM. It also gave a GI50 [31] of 405 nM, a TGI [31] of 2110 nM and a GI50 [32] of 780 nM. The TGI [32] was 2220 nM, the GI50 [33] was 1830 nM and the TGI [33] was 10100 nM. For the same molecule, the GI50 [34] was 314 nM, the TGI [34] was 805 nM and the GI50 [35] was 294 nM. It also gave a TGI [35] of 1200 nM, a GI50 [36] of 393 nM and a TGI [36] of 2840 nM. It also gave a GI50 [37] of 939 nM, a TGI [37] of 7250 nM and a GI50 [38] of 572 nM. For the same molecule, the TGI [38] was 2150 nM, the GI50 [39] was under 14.9 nM and the TGI [39] was 53 nM. It also gave a GI50 [40] of 983 nM, a TGI [40] of 2420 nM and a GI50 [41] of 346 nM. It also gave a TGI [41] of 1820 nM, a GI50 [42] of 168 nM and a TGI [42] of 353 nM. The GI50 [43] was 528 nM, the TGI [43] was 1780 nM and the GI50 [44] was 1390 nM. For the same molecule, the TGI [44] was 3600 nM, the GI50 [45] was 339 nM and the TGI [45] was 1560 nM. The GI50 [46] was 997 nM, the TGI [46] was 2310 nM and the GI50 [47] was 639 nM. It also gave a TGI [47] of over 100000 nM, a GI50 [48] of 263 nM and a TGI [48] of 1530 nM. For the same molecule, the GI50 [49] was 571 nM, the TGI [49] was 1810 nM and the GI50 [50] was 1530 nM. It also gave a TGI [50] of 3440 nM, a GI50 [51] of 1470 nM and a TGI [51] of 2850 nM. The GI50 [52] was 1120 nM, the TGI [52] was 2390 nM and the GI50 [53] was 718 nM. It also gave a TGI [53] of 4050 nM, a GI50 [54] of 288 nM and a TGI [54] of 1540 nM. For the same molecule, the GI50 [55] was 1250 nM and the TGI [55] was 3540 nM.
